Data reported in patent publication US20110003382A1, “USE OF CORTICOSTERONE FOR INCREASING EGG ANTIBODY” (WISCONSIN ALUMNI RESEARCH FOUNDATION, priority 2009, published 2011).

Experiments:
[1] = test system: Single Comb White Leghorn hens; assay: Anti-PLA2 antibody titer in egg yolk of immunized hens by ELISA; format: in vivo
From the text: (§1) In all Examples, Single Comb White Leghorn hens (SCWL) used were transported as pullets (18- to 22-weeks of age) from S&R Farms (Whitewater, Wis.) to University of Wisconsin—Madison Poultry Research Laboratory. Hens were individually housed in cages with raised bottom floors for at least four weeks before being assigned to an Example, and were 26- to 60-weeks of age at the beginning of experiments. Hens were fed, ad libitum, a standard corn-soybean meal based laying hen diet formulated to meet nutritional requirements. Housing was maintained under an automated lighting schedule with 16:8-h light-dark cycle. All procedures involving animals were approved by Animal Care Committee at University of Wisconsin, Madison.
The antigen selected for comparing the antibody response of hens was a 13 kDa soluble protein antigen, phospholipase A2 (PLA2) purified from porcine pancreas (Novozyme, Bagsvaerd, Denmark; greater than 90% purity based on SDS-PAGE). PLA2 was used because of its commercial relevance, and its previous use as a model antigen for studying hen antibody response (Trott, et al., 2008, “Additions of killed whole cell bacteria preparations to Freund complete adjuvant alter laying hen antibody response to soluble protein antigen,” Poult. Sci., 87(5):912-917). Hens were immunized according to methods described by Trott, et al. (2008). The primary immunization for each hen was a water-in-oil emulsion (50:50) that consisted of 3 mg PLA2 dissolved in 0.5 mL phosphate buffer saline (PBS), and emulsified with 0.5 mL of Freund Complete Adjuvant (FCA; DIFCO, Sparks, Md.). Seven days after the primary immunization, each hen received a booster injection containing 3 mg PLA2 dissolved in 0.5 mL PBS and emulsified with Freund Incomplete Adjuvant (FIA; DIFCO). All injections (primary and booster) were administered i.m. into each breast and thigh of hen (1 ml/hen at 0.25 mL/injection site). In all experiments, immunization of hens (primary and booster) occurred at approximately 10 A.M. to eliminate the potential confounding effect of endogenous CORT levels fluctuating due to circadian rhythms.
Based on previous experimentation (Trott et al., 2008; Schade et al., 2001, “Chicken egg yolk antibodies: Production and application,” Springer, Heidelberg, Germany) week three after primary immunization represented peak antibody titer in egg yolk; therefore, eggs were collected once per week beginning on week three and continuing until week eight or ten for repeated testing of anti-PLA2 antibody content using an ELISA (Trott, et al., 2008).
Anti-PLA2 antibody content of egg yolk and serum samples were measured by an ELISA (Trott, et al., 2008). A 96-well Nunc-Immuno Plate with MaxiSorp surface (Thermo Fischer Scientific, Waltham, Mass.) was coated overnight (100 μl per well) with PLA2 (Sigma Aldrich, St. Louis, Mo.) at a concentration of 10 μg/ml in 50 mM sodium bicarbonate. After washing, the plate was blocked (175 μl per well) for at least 1 hour with PBS containing 1% albumin from bovine serum albumin (BSA; Sigma Aldrich). Egg antibody was water-extracted from liquid egg yolk samples. Liquid egg yolk samples […] were pipetted with a positive displacement pipette (Rainin, Oakland, Calif.) and extracted overnight with 1.8 ml acidified PBS (pH 5). The extraction mixture was centrifuged at 1,500×g for 10 minutes, and the supernate was further diluted to 1:16,000 with PBS containing 1% BSA (pH 7). Serum samples were diluted 1:16,000 in PBS containing 1% BSA. In addition to the weekly egg yolk or serum samples, an ‘in-lab standard’ was applied to each ELISA plate. The standard applied to each plate consisted of a 2-fold serial dilution from 1:2,000 to 1:64,000 of water-extracted egg yolks from hens immunized against PLA2 in a previous trial. After coating, blocking, and washing the plate, duplicate samples and ‘in-lab standard’ (100 μl/well) were incubated for 1 hour on the plate followed by washing (6×). […]

[2] = test system: Single Comb White Leghorn hens; assay: Anti-PLA2 antibody titer in serum of immunized hens by ELISA; format: in vivo; conditions: weeks 2 to 3 after primary immunization
From the text: as §1
The antigen selected for comparing the antibody response of hens was a 13 kDa soluble protein antigen, phospholipase A2 (PLA2) purified from porcine pancreas (Novozyme, Bagsvaerd, Denmark; greater than 90% purity based on SDS-PAGE). PLA2 was used because of its commercial relevance, and its previous use as a model antigen for studying hen antibody response (Trott, et al., 2008, “Additions of killed whole cell bacteria preparations to Freund complete adjuvant alter laying hen antibody response to soluble protein antigen,” Poult. Sci., 87(5):912-917). […]
Anti-PLA2 antibody content of egg yolk and serum samples were measured by an ELISA (Trott, et al., 2008). […]

[3] = test system: Single Comb White Leghorn hens; assay: Peripheral blood mononuclear cell (PBMC) counts; format: in vivo
Procedure: Peripheral Blood Mononuclear Cell Counts. […] Whole blood (2-3 ml) was collected from wing vein into heparin-containing tubes (Becton Dickinson, Sparks, Md.). In 15-ml conical tubes, blood (2 ml) was layered on an equal volume (2 ml) of 1077 Histopaque (Sigma-Aldrich), and centrifuged at 400×g for 30 minutes at room temperature. Mononuclear cells were collected from the gradient interface, and re-suspended in PBS to the original blood volume (2 ml) or the sample. PBMCs were further diluted (1:16) in PBS, mixed with an equal volume of 0.4% trypan blue solution (Sigma-Aldrich), and counted, microscopically, with the aid of a hemacytometer.

[4] = test system: Single Comb White Leghorn hens; assay: Body weight change (% initial BW); format: in vivo
Procedure: (§2) Measurement of body weight and egg production. […] Initial body weight of adult laying hens, 26- to 60-weeks of age, was reported when measured at the beginning of experiments. Data were expressed as a percentage of initial body weight (% initial BW) to determine effects of CORT on change in body weight. Eggs produced were recorded daily for each hen. Laying frequency (or egg production) of each hen during each 7 day period measured, was obtained by dividing the total number of eggs laid by 7.

[5] = test system: Single Comb White Leghorn hens; assay: Egg production (laying frequency); format: in vivo
Procedure: as §2

chicken = conditions: feeding CORT 20-80 mg/kg diet; cited from earlier work
broilers = conditions: dietary CORT 30 mg/kg diet for 1 week; cited from earlier work
laying hens = conditions: cited from earlier work
[6] = after 1 day of CORT at 20 mg/kg diet in drinking water; cited from earlier work
mice = conditions: exogenous corticosterone; cited from earlier work
[7] = Example 3: CORT 5 days, week 1 after diet administration
[8] = Example 4: CORT 6 days, weeks 4 to 10 after primary immunization

C[C@]12C[C@H](O)[C@H]3[C@@H](CCC4=CC(=O)CC[C@@]43C)[C@@H]1CC[C@@H]2C(=O)CO [CORT, corticosterone]
difference in antibody titer of egg yolks vs control-fed hens ([1]; Example 2: CORT 30 mg/kg diet for 2 days beginning on day 1 before primary immunization, weeks 3 to 6, p=0.24): no difference | antibody titer of egg yolks (Log2 titer) ([1]; Example 2: CORT 30 mg/kg diet for 2 days beginning on day 1 before primary immunization, weeks 3 to 6 after primary immunization): 15.52 Log2 titer | antibody titer of egg yolks (Log2 titer) ([1]; Example 3: CORT 30 mg/kg diet for 5 days beginning on day 7 before primary immunization, weeks 3 to 5 after primary immunization): 17.02 Log2 titer | difference in antibody titer of egg yolks vs control-fed hens ([1]; Example 3: CORT for 5 days beginning on day 7 before primary immunization, weeks 3 to 5, p=0.96): no difference | egg yolk antibody titer (Log2 titer) ([1]; Example 4: CORT 30 mg/kg diet for 6 days beginning on day 1 before primary immunization, weeks 3 to 5): 17.32 Log2 titer | egg yolk antibody titer (Log2 titer) ([1]; Example 4: CORT 6 days, entire study period weeks 3 to 9): 17.37 Log2 titer | fold higher egg yolk antibody titer vs control-fed hens ([1]; Example 4: CORT 6 days, weeks 3 to 5, p=0.006): 3.1 fold | fold increase in antibody titer of egg yolks vs control hens ([1]; Example 4: CORT 6 days, weeks 3 to 9, p=0.032): 1.8 fold | fold higher antibody titer of egg yolks vs control-fed hens ([1]; Example 5: CORT 9 days, weeks 3 to 10, p=0.00001): 3.0 fold | antibody titer of egg yolks (Log2 titer) ([1]; Example 5: dietary CORT for 9 days beginning on day 1 before primary immunization, weeks 3 to 10 after primary immunization): 16.50 Log2 titer | serum antibody titer (Log2 titer) ([2]; Example 4: CORT 30 mg/kg diet for 6 days beginning on day 1 before primary immunization): 17.65 Log2 titer | fold higher serum antibody titer vs control hens ([2]; Example 4: CORT 6 days, p=0.008): 4.9 fold | overall effect of CORT on PBMC counts ([3]; Example 3: CORT 5 days beginning day 7 before immunization, p=0.82): no effect | PBMC count [3, 7]: 17,800 cells/μl blood | PBMC count as % of control-fed hens ([3]; Example 3: CORT 5 days, week 1 after diet administration, p=0.025): 49% | PBMC count ([3]; Example 3: CORT 5 days, week 2 after diet administration): 35,400 cells/μl blood | PBMC count ([3]; Example 4: CORT 30 mg/kg diet 6 days, week 1 after diet administration): 9,200 cells/μl blood | PBMC count as % of control-fed hens ([3]; Example 4: CORT 6 days, week 1 after diet administration, p<0.0001): 43% | PBMC count ([3]; Example 4: CORT 6 days, week 2): 12,900 cells/μl blood | PBMC count as % of control-fed hens ([3]; Example 4: CORT 6 days, week 2, p=0.001): 59% | PBMC count ([3]; Example 4: CORT 6 days, week 3, returned to control levels, p=0.57): 19,700 cells/μl blood | effect of CORT on body weight (% initial BW) vs control-fed hens ([4]; Example 3: CORT 5 days, p=0.27): no effect | body weight higher than initial body weight [4, 7]: 11.4% | body weight higher than initial body weight ([4]; Example 3: CORT 5 days, week 2): 10.5% | body weight vs initial body weight ([4]; Example 3: CORT 5 days, week 5 after diet administration, p=0.57): not different from initial body weight | body weight higher than initial body weight ([4]; Example 4: CORT 6 days, weeks 1 to 3 after diet administration): 13.3% | decrease in egg production between week 1 before and week 1 after diet administration ([5]; Example 3: CORT 5 days, p=0.004): 21% | overall difference in egg production vs control-fed hens ([5]; Example 3: CORT 5 days, p=0.57): no overall difference | egg production, overall ([5]; Example 3: CORT 5 days, throughout the Example): 73% | egg production [5, 7]: 50% | egg production less than control-fed hens ([5]; Example 3: CORT 5 days, week 1 after diet administration, p=0.005): 34% | egg production ([5]; Example 3: CORT 5 days, week 2): 62% | egg production less than control-fed hens ([5]; Example 3: CORT 5 days, week 2, p=0.014): 29% | overall egg production less than control-fed hens ([5]; Example 4: CORT 6 days): 35% | egg production suppressed vs control-fed hens ([5]; Example 4: CORT 6 days, week 1 after diet administration): 50% | egg production suppressed vs control-fed hens ([5]; Example 4: CORT 6 days, week 2 after diet administration): 100% | egg production suppressed vs control-fed hens ([5]; Example 4: CORT 6 days, week 3 after diet administration): 80% | overall egg production ([5]; Example 4: CORT 6 days, weeks 0 to 10): 54% | egg production [5, 8]: 69% | egg production lower than control-fed hens [5, 8]: 17% | overall egg production ([5]; Example 5: CORT 9 days): 39% | overall egg production less than control-fed hens ([5]; Example 5: CORT 9 days): 31% | egg production suppressed vs control-fed hens ([5]; Example 5: CORT 9 days, week 4 after diet administration): 80% | egg production ([5]; Example 5: CORT 9 days, week 5 after diet administration): 45% | egg production lower than control-fed hens ([5]; Example 5: CORT 9 days, week 5 after diet administration, p=0.007): 50% | egg production suppressed vs control-fed hens ([5]; Example 5: CORT 9 days, weeks 2 and 3 after diet administration): 60% | egg production ([5]; Example 5: CORT 9 days, weeks 6 to 11 after primary immunization): 53% | egg production lower than control-fed hens ([5]; Example 5: CORT 9 days, weeks 6 to 11 after primary immunization, p=0.001): 14% | number of circulating lymphocytes in chicken blood (chicken): markedly decreased | effect on body weight gain in broilers (broilers): negatively affect | egg production (laying hens; after 1 week of dietary CORT 20-40 mg/kg diet): completely suppressed | effect on egg production in laying hens (laying hens; dietary CORT 30 mg/kg diet for 1 week): negatively affect | additional time out of production after removal of CORT (laying hens; dietary CORT 20-40 mg/kg diet for 1 week): 9 to 12 days | plasma CORT concentrations [6]: significant increase | mouse T-dependent antibody response to sheep erythrocytes (mice): increased
